Results published in patent US20240024444A1, “Combined Preparation” (MEDRx Co., Ltd., priority 2020, published 2024).

Test: In vitro skin permeability test (Franz diffusion cell)
Type: in vitro ADME, rat (Slc: Wistar)
Procedure: In this test, a Franz diffusion cell (effective diffusion area: 1.0 cm^2, PermeGear, Hellertown, US) was used, and the abdominal skin (shaved before the skin is removed) of 5-week-old male rats (Slc: Wistar) was used.
The abdominal skin of rats was cut to about […] (23 mm round) and set in a receptor cell filled with 8.0 mL of the receptor solution (saline of 0.1% bovine serum albumin (BSA) (purchased from FUJIFILM Wako Pure Chemical Corporation)). The receptor solution was kept at 32° C. in a circulator water bath at a constant temperature. After 2, 4, 6, 8 and 24 hours, the receptor solution (0.2 mL) was collected and each of the collected solution was used as samples. After collecting the samples, the same amount of the receptor solution was added into the receptor cell to keep the volume of the receptor solution constant. […] The HPLC condition was as follows: Column: YMC Pack Pro C18 RS 5 μm, 4.6×150 mm; YMC CO., LTD., Mobile Phase: acetonitrile/0.1% trifluoroacetic acid (23/77, v/v) at 35° C., Flow Rate: 1.0 mL/min. The wavelength of the UV detector was set to 215 nm.

In the case of CCOCc1nc2c(N)nc3ccccc3c2n1CC(C)(C)O [R848, Resiquimod], the “accumulative amount of the co-administered R848 for 24 hours” value (R848 co-administered with WT1 peptide) is reported as “about 350 μg/cm^2” and the “accumulative amount of the individually-administered R848 for 24 hours” value (R848 individually administered) is reported as “about 1500 μg/cm^2”.
